Experimental data reported in US20240415914A1, “Water Dispersible Cannabinoid Compositions” (priority 2021, published 2024).

Assay: Stability of cannabinoid and Vitamin E components of Beverage 1 (AB White) stored at 8° C. and 21-25° C., LCMSMS over 570 days
Format: physicochemical
Conditions: for Stability in AB White, 8° C. (content by LCMSMS): beverage stored at 8° C.; for Stability in AB White, 21-25° C. (content by LCMSMS): beverage stored at 21-25° C.
Experimental: The LCMSMS was calibrated for 0-1000 ng/ml cannabinoids with the same resin material used in the preparation of the concentrates. At each time period, 100 ml of beverage was diluted with 10 ml of methanol and injected into the LCMSMS for analysis.

Structure (SMILES): CCCCCc1cc(O)c2c(c1)OC1(C)CCC3C1C2C3(C)C (centres unmarked) [CBL, cannabicyclol]
- Stability in AB White, 8° C. (content by LCMSMS) (day 0): 0.550 µg/mL
- Stability in AB White, 8° C. (content by LCMSMS) (day 1): 0.541 µg/mL
- Stability in AB White, 8° C. (content by LCMSMS) (day 2): 0.542 µg/mL
- Stability in AB White, 8° C. (content by LCMSMS) (day 3): 0.553 µg/mL
- Stability in AB White, 8° C. (content by LCMSMS) (day 5): 0.552 µg/mL
- Stability in AB White, 8° C. (content by LCMSMS) (day 8): 0.537 µg/mL
- Stability in AB White, 8° C. (content by LCMSMS) (day 9): 0.535 µg/mL
- Stability in AB White, 8° C. (content by LCMSMS) (day 10): 0.544 µg/mL
- Stability in AB White, 8° C. (content by LCMSMS) (day 11): 0.544 µg/mL
- Stability in AB White, 8° C. (content by LCMSMS) (day 12): 0.553 µg/mL
- Stability in AB White, 8° C. (content by LCMSMS) (day 15): 0.534 µg/mL
- Stability in AB White, 8° C. (content by LCMSMS) (day 16): 0.546 µg/mL
- Stability in AB White, 8° C. (content by LCMSMS) (day 17): 0.540 µg/mL
- Stability in AB White, 8° C. (content by LCMSMS) (day 18): 0.536 µg/mL
- Stability in AB White, 8° C. (content by LCMSMS) (day 19): 0.537 µg/mL
- Stability in AB White, 8° C. (content by LCMSMS) (day 22): 0.555 µg/mL
- Stability in AB White, 8° C. (content by LCMSMS) (day 23): 0.545 µg/mL
- Stability in AB White, 8° C. (content by LCMSMS) (day 24): 0.548 µg/mL
- Stability in AB White, 8° C. (content by LCMSMS) (day 25): 0.540 µg/mL
- Stability in AB White, 8° C. (content by LCMSMS) (day 26): 0.534 µg/mL
- Stability in AB White, 8° C. (content by LCMSMS) (day 29): 0.547 µg/mL
- Stability in AB White, 8° C. (content by LCMSMS) (day 30): 0.544 µg/mL
- Stability in AB White, 8° C. (content by LCMSMS) (day 60): 0.543 µg/mL
- Stability in AB White, 8° C. (content by LCMSMS) (day 90): 0.527 µg/mL
- Stability in AB White, 8° C. (content by LCMSMS) (day 120): 0.534 µg/mL
- Stability in AB White, 8° C. (content by LCMSMS) (day 150): 0.540 µg/mL
- Stability in AB White, 8° C. (content by LCMSMS) (day 180): 0.542 µg/mL
- Stability in AB White, 8° C. (content by LCMSMS) (day 210): 0.534 µg/mL
- Stability in AB White, 8° C. (content by LCMSMS) (day 240): 0.535 µg/mL
- Stability in AB White, 8° C. (content by LCMSMS) (day 270): 0.539 µg/mL
- Stability in AB White, 8° C. (content by LCMSMS) (day 300): 0.526 µg/mL
- Stability in AB White, 8° C. (content by LCMSMS) (day 330): 0.543 µg/mL
- Stability in AB White, 8° C. (content by LCMSMS) (day 360): 0.533 µg/mL
- Stability in AB White, 8° C. (content by LCMSMS) (day 390): 0.535 µg/mL
- Stability in AB White, 8° C. (content by LCMSMS) (day 420): 0.526 µg/mL
- Stability in AB White, 8° C. (content by LCMSMS) (day 450): 0.532 µg/mL
- Stability in AB White, 8° C. (content by LCMSMS) (day 480): 0.521 µg/mL
- Stability in AB White, 8° C. (content by LCMSMS) (day 510): 0.514 µg/mL
- Stability in AB White, 8° C. (content by LCMSMS) (day 540): 0.514 µg/mL
- Stability in AB White, 8° C. (content by LCMSMS) (day 570): 0.503 µg/mL
- Stability in AB White, 21-25° C. (content by LCMSMS) (day 0): 0.550 µg/mL
- Stability in AB White, 21-25° C. (content by LCMSMS) (day 1): 0.539 µg/mL
- Stability in AB White, 21-25° C. (content by LCMSMS) (day 2): 0.540 µg/mL
- Stability in AB White, 21-25° C. (content by LCMSMS) (day 3): 0.543 µg/mL
- Stability in AB White, 21-25° C. (content by LCMSMS) (day 5): 0.530 µg/mL
- Stability in AB White, 21-25° C. (content by LCMSMS) (day 8): 0.542 µg/mL
- Stability in AB White, 21-25° C. (content by LCMSMS) (day 9): 0.535 µg/mL
- Stability in AB White, 21-25° C. (content by LCMSMS) (day 10): 0.546 µg/mL
- Stability in AB White, 21-25° C. (content by LCMSMS) (day 11): 0.552 µg/mL
- Stability in AB White, 21-25° C. (content by LCMSMS) (day 12): 0.529 µg/mL
- Stability in AB White, 21-25° C. (content by LCMSMS) (day 15): 0.548 µg/mL
- Stability in AB White, 21-25° C. (content by LCMSMS) (day 16): 0.537 µg/mL
- Stability in AB White, 21-25° C. (content by LCMSMS) (day 17): 0.554 µg/mL
- Stability in AB White, 21-25° C. (content by LCMSMS) (day 18): 0.554 µg/mL
- Stability in AB White, 21-25° C. (content by LCMSMS) (day 19): 0.552 µg/mL
- Stability in AB White, 21-25° C. (content by LCMSMS) (day 22): 0.547 µg/mL
- Stability in AB White, 21-25° C. (content by LCMSMS) (day 23): 0.530 µg/mL
- Stability in AB White, 21-25° C. (content by LCMSMS) (day 24): 0.546 µg/mL
- Stability in AB White, 21-25° C. (content by LCMSMS) (day 25): 0.532 µg/mL
- Stability in AB White, 21-25° C. (content by LCMSMS) (day 26): 0.549 µg/mL
- Stability in AB White, 21-25° C. (content by LCMSMS) (day 29): 0.552 µg/mL
- Stability in AB White, 21-25° C. (content by LCMSMS) (day 30): 0.543 µg/mL
- Stability in AB White, 21-25° C. (content by LCMSMS) (day 60): 0.544 µg/mL
- Stability in AB White, 21-25° C. (content by LCMSMS) (day 90): 0.541 µg/mL
- Stability in AB White, 21-25° C. (content by LCMSMS) (day 120): 0.516 µg/mL
- Stability in AB White, 21-25° C. (content by LCMSMS) (day 150): 0.517 µg/mL
- Stability in AB White, 21-25° C. (content by LCMSMS) (day 180): 0.527 µg/mL
- Stability in AB White, 21-25° C. (content by LCMSMS) (day 210): 0.514 µg/mL
- Stability in AB White, 21-25° C. (content by LCMSMS) (day 240): 0.515 µg/mL
- Stability in AB White, 21-25° C. (content by LCMSMS) (day 270): 0.535 µg/mL
- Stability in AB White, 21-25° C. (content by LCMSMS) (day 300): 0.532 µg/mL
- Stability in AB White, 21-25° C. (content by LCMSMS) (day 330): 0.526 µg/mL
- Stability in AB White, 21-25° C. (content by LCMSMS) (day 360): 0.526 µg/mL
- Stability in AB White, 21-25° C. (content by LCMSMS) (day 390): 0.518 µg/mL
- Stability in AB White, 21-25° C. (content by LCMSMS) (day 420): 0.523 µg/mL
- Stability in AB White, 21-25° C. (content by LCMSMS) (day 450): 0.521 µg/mL
- Stability in AB White, 21-25° C. (content by LCMSMS) (day 480): 0.510 µg/mL
- Stability in AB White, 21-25° C. (content by LCMSMS) (day 510): 0.503 µg/mL
- Stability in AB White, 21-25° C. (content by LCMSMS) (day 540): 0.510 µg/mL
- Stability in AB White, 21-25° C. (content by LCMSMS) (day 570): 0.505 µg/mL
